Laboratory results as given in PubChem BioAssay AID1963847 (Molecular Pharmacology Branch, DTP, NCI, 2024).

Tested on: 415267-285-R-J2-PDC complex spheroid viability
Experiment: Anticancer human tumor 415267-285-R-J2-PDC patient-derived breast carcinoma cell line growth inhibition [POLQ]
Conditions: for IC50: curve of first compound; for viability, T/C: stronger effect = lower value
Summary of the method: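 Patient-derived tumour cells were co-cultured with HUVEC and mesenchymal stem cells as multicellular spheroids at 37 °C. They were treated with POLQ inhibitors (novobiocin, ART-558, RP6685) alone or combined with other agents. Top concentrations were at or near clinical Cmax (otherwise 10 microM; SN-38 at 1 microM), decreasing in half-log steps.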

[1] = second compound 0.0316 µM, first compound 0.0316 µM
[2] = second compound 0.0316 µM, first compound 0.1 µM
[3] = second compound 0.0316 µM, first compound 0.316 µM
[4] = second compound 0.0316 µM, first compound 1 µM
[5] = second compound 0.0316 µM, first compound 3.16 µM
[6] = second compound 0.0316 µM, first compound 10 µM
[7] = second compound 0.1 µM, first compound 0.0316 µM
[8] = second compound 0.1 µM, first compound 0.1 µM
[9] = second compound 0.1 µM, first compound 0.316 µM
[10] = second compound 0.1 µM, first compound 1 µM
[11] = second compound 0.1 µM, first compound 3.16 µM
[12] = second compound 0.1 µM, first compound 10 µM
[13] = second compound 0.316 µM, first compound 0.0316 µM
[14] = second compound 0.316 µM, first compound 0.1 µM
[15] = second compound 0.316 µM, first compound 0.316 µM
[16] = second compound 0.316 µM, first compound 1 µM
[17] = second compound 0.316 µM, first compound 3.16 µM
[18] = second compound 0.316 µM, first compound 10 µM
[19] = second compound 1 µM, first compound 0.0316 µM
[20] = second compound 1 µM, first compound 0.1 µM
[21] = second compound 1 µM, first compound 0.316 µM
[22] = second compound 1 µM, first compound 1 µM
[23] = second compound 1 µM, first compound 3.16 µM
[24] = second compound 1 µM, first compound 10 µM
[25] = second compound 3.16 µM, first compound 0.0316 µM
[26] = second compound 3.16 µM, first compound 0.1 µM
[27] = second compound 3.16 µM, first compound 0.316 µM
[28] = second compound 3.16 µM, first compound 1 µM
[29] = second compound 3.16 µM, first compound 3.16 µM
[30] = second compound 3.16 µM, first compound 10 µM
[31] = second compound 10 µM, first compound 0.0316 µM
[32] = second compound 10 µM, first compound 0.1 µM
[33] = second compound 10 µM, first compound 0.316 µM
[34] = second compound 10 µM, first compound 1 µM
[35] = second compound 10 µM, first compound 3.16 µM
[36] = second compound 10 µM, first compound 10 µM
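Note: spheroids exposed to compounds for one week before readout.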
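Throughout, for viability, T/C: luminescence used as stand-in measure of viable cells; 100% = DMSO vehicle control viability.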

SMILES: C#Cc1c(F)ccc2cc(O)cc(-c3ncc4c(N5CC6CCC(C5)N6)nc(OCC56CCCN5CC(F)C6)nc4c3F)c12 (stereo unspecified) + COC1C(OC(N)=O)C(O)C(Oc2ccc3c(O)c(NC(=O)c4ccc(O)c(CC=C(C)C)c4)c(=O)oc3c2C)OC1(C)C
- IC50 (second compound 0.0316 µM): > 10 µM
- IC50 (second compound 0.1 µM): > 10 µM
- IC50 (second compound 0.316 µM): > 10 µM
- IC50 (second compound 1 µM): > 10 µM
- IC50 (second compound 3.16 µM): > 10 µM
- IC50 (second compound 10 µM): > 10 µM
- viability, T/C [1]: 101%
- viability, T/C [2]: 95.3%
- viability, T/C [3]: 103%
- viability, T/C [4]: 95.4%
- viability, T/C [5]: 97.7%
- viability, T/C [6]: 101%
- viability, T/C [7]: 97.6%
- viability, T/C [8]: 91.9%
- viability, T/C [9]: 102%
- viability, T/C [10]: 103%
- viability, T/C [11]: 101%
- viability, T/C [12]: 110%
- viability, T/C [13]: 97.7%
- viability, T/C [14]: 103%
- viability, T/C [15]: 104%
- viability, T/C [16]: 95.3%
- viability, T/C [17]: 99.3%
- viability, T/C [18]: 100%
- viability, T/C [19]: 84.9%
- viability, T/C [20]: 92%
- viability, T/C [21]: 91.2%
- viability, T/C [22]: 104%
- viability, T/C [23]: 102%
- viability, T/C [24]: 96.7%
- viability, T/C [25]: 100%
- viability, T/C [26]: 111%
- viability, T/C [27]: 92.1%
- viability, T/C [28]: 111%
- viability, T/C [29]: 94.5%
- viability, T/C [30]: 91.4%
- viability, T/C [31]: 95.3%
- viability, T/C [32]: 105%
- viability, T/C [33]: 98.4%
- viability, T/C [34]: 98%
- viability, T/C [35]: 91.8%
- viability, T/C [36]: 103%

SMILES: CC1COCCN1c1cc(C2(S(C)(=N)=O)CC2)nc(-c2ccnc3[nH]ccc23)n1 (stereo unspecified) + Cc1cccc(N(C)C(=O)C2C(O)CCN2c2nc(C)cc(C(F)(F)F)c2C#N)c1
- IC50 (second compound 0.0316 µM): 0.488 µM
- IC50 (second compound 0.1 µM): 0.447 µM
- IC50 (second compound 0.316 µM): 0.441 µM
- IC50 (second compound 1 µM): 0.473 µM
- IC50 (second compound 3.16 µM): 0.422 µM
- IC50 (second compound 10 µM): 0.501 µM
- viability, T/C [1]: 88.4%
- viability, T/C [2]: 102%
- viability, T/C [3]: 70.3%
- viability, T/C [4]: 15.8%
- viability, T/C [5]: 6.51%
- viability, T/C [6]: 5.21%
- viability, T/C [7]: 92.8%
- viability, T/C [8]: 96.3%
- viability, T/C [9]: 65%
- viability, T/C [10]: 14.3%
- viability, T/C [11]: 5.97%
- viability, T/C [12]: 4.58%
- viability, T/C [13]: 102%
- viability, T/C [14]: 98.7%
- viability, T/C [15]: 62.8%
- viability, T/C [16]: 17.7%
- viability, T/C [17]: 6.78%
- viability, T/C [18]: 4.96%
- viability, T/C [19]: 106%
- viability, T/C [20]: 107%
- viability, T/C [21]: 70.2%
- viability, T/C [22]: 12.4%
- viability, T/C [23]: 6.47%
- viability, T/C [24]: 5.16%
- viability, T/C [25]: 94.2%
- viability, T/C [26]: 94.8%
- viability, T/C [27]: 62.4%
- viability, T/C [28]: 12.5%
- viability, T/C [29]: 6.4%
- viability, T/C [30]: 5.39%
- viability, T/C [31]: 91.6%
- viability, T/C [32]: 102%
- viability, T/C [33]: 72.7%
- viability, T/C [34]: 15.7%
- viability, T/C [35]: 6.3%
- viability, T/C [36]: 4.96%

SMILES: O=c1[nH]cc(F)c(=O)[nH]1 + COC1C(OC(N)=O)C(O)C(Oc2ccc3c(O)c(NC(=O)c4ccc(O)c(CC=C(C)C)c4)c(=O)oc3c2C)OC1(C)C
- IC50 (second compound 0.0316 µM): 0.194 µM
- IC50 (second compound 0.1 µM): 0.197 µM
- IC50 (second compound 0.316 µM): 0.162 µM
- IC50 (second compound 1 µM): 0.176 µM
- IC50 (second compound 3.16 µM): 0.205 µM
- IC50 (second compound 10 µM): 0.203 µM
- viability, T/C [1]: 94.1%
- viability, T/C [2]: 72.7%
- viability, T/C [3]: 33.1%
- viability, T/C [4]: 31.1%
- viability, T/C [5]: 27.2%
- viability, T/C [6]: 37.1%
- viability, T/C [7]: 86.9%
- viability, T/C [8]: 73.1%
- viability, T/C [9]: 34.2%
- viability, T/C [10]: 23.7%
- viability, T/C [11]: 26.5%
- viability, T/C [12]: 39.3%
- viability, T/C [13]: 97.7%
- viability, T/C [14]: 63.8%
- viability, T/C [15]: 31%
- viability, T/C [16]: 27.2%
- viability, T/C [17]: 26.7%
- viability, T/C [18]: 34.5%
- viability, T/C [19]: 85.8%
- viability, T/C [20]: 63.5%
- viability, T/C [21]: 36.8%
- viability, T/C [22]: 25.3%
- viability, T/C [23]: 26.4%
- viability, T/C [24]: 29.9%
- viability, T/C [25]: 94.6%
- viability, T/C [26]: 76.3%
- viability, T/C [27]: 34.2%
- viability, T/C [28]: 27.1%
- viability, T/C [29]: 25.4%
- viability, T/C [30]: 37.2%
- viability, T/C [31]: 92%
- viability, T/C [32]: 70%
- viability, T/C [33]: 37.8%
- viability, T/C [34]: 29.9%
- viability, T/C [35]: 25.3%
- viability, T/C [36]: 35.7%
